Results on 13 molecules are retold here after PubChem BioAssay (NCI).

Some test systems named below: HCT-116 colon; 786-0 renal; SK-MEL-5 melanoma; UACC-62 melanoma; A549 NSCLC; NCI-H460 lung; MOLT-4 leukemia; SW-620 colon; OVCAR-5 ovarian; SK-OV-3 ovarian; OVCAR-4 ovarian.
Holding throughout (assay): NCI anticancer screen, dose series, 48 h

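These data come from cells grown in 96-well plates and exposed to compound for 48 hours at five concentrations. GI50: concentration for 50% inhibition of growth. TGI: concentration producing complete growth inhibition.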 Where a SMILES comes first, the peptide text is derived from it. The star is where a group is joined. Boc = CC(C)(C)OC(=O)*

In the case of `CCCSc1ccc2[nH]c(N3C(=O)/C(=C/c4ccco4)N=C3c3ccccc3)cc2c1`, the TGI was greater than 50 µM with HCT-116 colon; greater than 50 µM with 786-0 renal; 30.3 µM in the experiment with SK-MEL-5 melanoma; greater than 50 µM in the experiment on UACC-62 melanoma; greater than 50 µM in the experiment on A549 NSCLC; greater than 50 µM with NCI-H460 lung. Further, the TGI with MOLT-4 leukemia, in the experiment with SW-620 colon and with OVCAR-5 ovarian was greater than 50 µM each time.
On to `CCC12CCCN(Cc3ccccc3)C1c1c([nH]c3ccccc13)C(C(=O)OC)C2` (configuration not stated), for which the TGI with HCT-116 colon, in the experiment with 786-0 renal, in the experiment with SK-MEL-5 melanoma, in the experiment with UACC-62 melanoma, with A549 NSCLC and in the experiment on MOLT-4 leukemia was greater than 10 µM throughout. For the same molecule, the TGI in the experiment on SK-OV-3 ovarian, in the experiment on SW-620 colon, in the experiment on OVCAR-4 ovarian and in the experiment with OVCAR-5 ovarian was greater than 10 µM each time.
Regarding `COc1cc2c(cc1OC)C(C(CO)CO)N(CC(O)CCl)CC2` (configuration not stated), the TGI in the experiment with 786-0 renal, with SK-MEL-5 melanoma, with UACC-62 melanoma, in the experiment with A549 NSCLC, in the experiment with NCI-H460 lung and with MOLT-4 leukemia was greater than 100 µM in each case. Moreover, the TGI in the experiment on SK-OV-3 ovarian, with SW-620 colon, with OVCAR-4 ovarian and in the experiment with OVCAR-5 ovarian was greater than 100 µM throughout.
For the molecule `C1CCC2(CC1)O[C@@H]1[C@@H](O2)[C@@H](O[C@H]2O[C@@H]3COC4(CCCCC4)O[C@H]3[C@@H]3OC4(CCCCC4)O[C@@H]23)O[C@@H]2COC3(CCCCC3)O[C@@H]12`, the TGI in the experiment with HCT-116 colon, in the experiment with 786-0 renal, with SK-MEL-5 melanoma, with UACC-62 melanoma, in the experiment on A549 NSCLC and in the experiment with MOLT-4 leukemia was greater than 100 µM in each case. For the same molecule, the TGI in the experiment on SK-OV-3 ovarian, with SW-620 colon, in the experiment on OVCAR-4 ovarian and with OVCAR-5 ovarian was greater than 100 µM in each case.
With `CCCCC(C#N)(OP1(=O)OC(c2ccccc2)C(C)N1C)c1ccccc1` (configuration not stated), the TGI in the experiment on HCT-116 colon amounted to 30.4 µM; with 786-0 renal it was 31.8 µM; in the experiment with SK-MEL-5 melanoma, 34.2 µM; in the experiment with UACC-62 melanoma, 29.4 µM; in the experiment with A549 NSCLC, 44.3 µM; with NCI-H460 lung, 31 µM. For the same molecule, the TGI in the experiment on MOLT-4 leukemia worked out at 35.9 µM; in the experiment with SK-OV-3 ovarian it was 43.7 µM; with SW-620 colon, 34.3 µM; in the experiment with OVCAR-5 ovarian, 32.2 µM.
Take `COC(=O)C(Cc1c[nH]c2ccccc12)NC(=O)C(Cc1c[nH]c2ccccc12)NC(=O)C(Cc1c[nH]c2ccccc12)NC(=O)C(Cc1c[nH]c2ccccc12)NC(=O)C(Cc1c[nH]c2ccccc12)NC(=O)C(Cc1c[nH]c2ccccc12)NC(=O)OC(C)(C)C` (configuration not stated) (Boc-WWWWWW-OMe; configuration not given here): the TGI is greater than 100 µM in the experiment on HCT-116 colon; greater than 100 µM in the experiment with 786-0 renal; 70.5 µM with SK-MEL-5 melanoma; greater than 100 µM with UACC-62 melanoma; greater than 100 µM in the experiment with A549 NSCLC; greater than 100 µM with NCI-H460 lung. The TGI with MOLT-4 leukemia, in the experiment on SW-620 colon, with OVCAR-4 ovarian and in the experiment on OVCAR-5 ovarian was greater than 100 µM throughout.
For the molecule `CCOC(=O)c1cc(-c2cc(OC)c(OC)c([N+](=O)[O-])c2)c([N+](=O)[O-])n1C`, the TGI in the experiment with HCT-116 colon, in the experiment on 786-0 renal, in the experiment with UACC-62 melanoma, with A549 NSCLC, with NCI-H460 lung and in the experiment on MOLT-4 leukemia was greater than 10 µM in each case. Further, the TGI in the experiment with OVCAR-4 ovarian and with OVCAR-5 ovarian was greater than 10 µM throughout.
`CC(=O)OCCOCn1c2c(c(=S)[nH]c1=O)CCC2`: the TGI in the experiment on HCT-116 colon, in the experiment with 786-0 renal, with SK-MEL-5 melanoma, with A549 NSCLC, in the experiment on MOLT-4 leukemia and in the experiment with SW-620 colon was greater than 100 µM throughout. The TGI in the experiment on OVCAR-4 ovarian and in the experiment on OVCAR-5 ovarian was greater than 100 µM in each case.
As to `NC(CCCC(N)P(=O)(O)c1ccccc1)P(=O)(O)c1ccccc1` (configuration not stated), the TGI with HCT-116 colon, in the experiment with 786-0 renal, in the experiment on UACC-62 melanoma, in the experiment on A549 NSCLC, in the experiment on NCI-H460 lung and with MOLT-4 leukemia was greater than 261 µM in each case. The TGI in the experiment with SK-OV-3 ovarian, in the experiment with SW-620 colon and with OVCAR-4 ovarian was greater than 261 µM in each case.
As for `Oc1ccc(-c2nc(-c3cccnc3)c(-c3ccc(Cl)cc3)[nH]2)cc1O`, the TGI is 26.7 µM in the experiment with HCT-116 colon; greater than 100 µM with 786-0 renal; 27.6 µM in the experiment on SK-MEL-5 melanoma; 23.3 µM with UACC-62 melanoma; 54.1 µM with A549 NSCLC; greater than 100 µM with MOLT-4 leukemia. For the same molecule, the TGI in the experiment on SK-OV-3 ovarian was 25.5 µM; with SW-620 colon it was 27.2 µM; in the experiment with OVCAR-4 ovarian, 51.6 µM; with OVCAR-5 ovarian, 35.3 µM.
Turning to `C[n+]1c(-c2ccc(/C=N/NC(=N)N/N=C/c3ccc(-c4cn5cc(Cl)ccc5[n+]4C)cc3)cc2)cn2cc(Cl)ccc21`, the TGI in the experiment on HCT-116 colon, in the experiment on 786-0 renal, in the experiment on SK-MEL-5 melanoma, in the experiment with A549 NSCLC, in the experiment on NCI-H460 lung and with MOLT-4 leukemia was greater than 100 µM each time. The TGI in the experiment with SK-OV-3 ovarian, with SW-620 colon, in the experiment with OVCAR-4 ovarian and in the experiment on OVCAR-5 ovarian was greater than 100 µM each time.
For `CC[C@H](O)[C@H](C)C=C1SCCCS1`, the TGI with HCT-116 colon, in the experiment on 786-0 renal, in the experiment with SK-MEL-5 melanoma, with UACC-62 melanoma, in the experiment with A549 NSCLC and in the experiment on MOLT-4 leukemia was greater than 100 µM in each case. Besides, the TGI in the experiment with SK-OV-3 ovarian, in the experiment on SW-620 colon, with OVCAR-4 ovarian and in the experiment with OVCAR-5 ovarian was greater than 100 µM throughout.
Turning to `O=C(Nc1cccc(-n2ccc3c(NC(=O)c4ccccc4)nccc32)c1)Nc1cc(C(F)(F)F)cc(C(F)(F)F)c1`, the GI50 in the experiment on HCT-116 colon is 1.69 µM; in the experiment with SK-MEL-5 melanoma, 0.946 µM; in the experiment on UACC-62 melanoma, 2 µM; with A549 NSCLC, 1.97 µM; with NCI-H460 lung, 1.7 µM; in the experiment on MOLT-4 leukemia, 1.92 µM. The results for the GI50 in the experiment on SW-620 colon, in the experiment with OVCAR-4 ovarian and with OVCAR-5 ovarian were 2.06 µM, 1.93 µM and 1.71 µM, respectively. Moreover, the TGI in the experiment with HCT-116 colon was 6.31 µM; in the experiment with SK-MEL-5 melanoma, 1.95 µM; in the experiment with UACC-62 melanoma it was 13 µM; in the experiment with A549 NSCLC it was greater than 50 µM; in the experiment on NCI-H460 lung, greater than 50 µM; in the experiment with MOLT-4 leukemia it was 36 µM. For the same molecule, the TGI in the experiment on SW-620 colon, in the experiment with OVCAR-4 ovarian and in the experiment with OVCAR-5 ovarian was greater than 50 µM throughout.
